Test results as given in US9110063B2, “Assay methods for the determination of FKBPL expression level in the context of breast cancer” (The Queen's University of Belfast, priority 2009, dated 2015).

Key:
MCF7 cells [1] = assay: Clonogenic assay, FKBPL-overexpressing MCF7 clones versus parental controls; type: cell-based; settings: 16 days, colony count
Description: Cells were plated at a density of 500 and 1000 cells/well in a 6-well plate containing DMEM+10% FCS and incubated at 37° C. for 24 h. […] In both experiments, colonies were fixed and stained with 0.4% Crystal Violet/70% methanol then counted.

MCF7 cells [2] = assay: Clonogenic assay after FKBPL siRNA knockdown versus non-targeting control; type: cell-based; settings: 16 days, versus non-targeting siRNA controls
Description: MCF7 cells were transfected with siControl non-targeting siRNA #1 (Dharmacon, Cat no. D-001210-01-20) or FKBPL targeted siRNA (Ambion, Cat no. 16104). Briefly, 1×10^5 MCF7 cells were seeded into 35 mm dishes and incubated at 37° C. for 24 h. To transfect, in one tube 6.4 μl of either siControl non-targeting siRNA or FKBPL targeted siRNA (2 μM) was added to 160 μl OptiMEM (Invitrogen) and in another tube 4 μl Oligofectamine (Invitrogen, Cat no. 12252-011) was added to 30 μl OptiMEM. Both tubes were incubated at room temperature for 5 min. Both tube contents were mixed and incubated at room temperature for 20 min. During incubation, 800 μl prewarmed complete DMEM was added to the cells then 200 μl transfection mix was added dropwise and the dishes incubated at 37° C. for 72 h. Cells were then plated at a density of 1000 and 2000 cells/well in a 6-well plate containing DMEM+10% FCS and incubated at 37° C. for 24 h. […] In both experiments, colonies were fixed and stained with 0.4% Crystal Violet/70% methanol then counted.

[3] = test system: oestrogen receptor positive (ER+) patients; settings: cited from earlier work
MCF7 parental cells = assay: Western blot of FKBPL and ER protein after 17-β-estradiol; type: cell-based; settings: 10^−8M, 24 h, versus DMSO vehicle
Description: To determine whether FKBPL itself could be regulated by oestrogen, 2×10^5 MCF7 parental cells were seeded into 35 mm dishes with phenol red-free DMEM+10% charcoal stripped FCS and incubated at 37° C. for 24 h. The medium was replaced with phenol red-free DMEM+10% charcoal-stripped FCS containing DMSO as vehicle control or 10^−8M 17-β-estradiol (Sigma, Cat no. E2758) and incubated for 24 h. Cells were lysed in 250 μl 2× laemmli buffer (Sigma) and subjected to SDS-PAGE electrophoresis using the XCell Surelock Mini-cell system (Invitrogen), transferred onto nitrocellulose membranes, blocked for 1 h at room temperature with 1% skim milk blocking solution and probed with FKBPL rabbit polyclonal (ProteinTech, Cat no. 10060-1-AP) at a dilution of 1:2000, ER rabbit monoclonal (Millipore, Cat no. 07-662) at a dilution of 1:1000 and GAPDH rabbit monoclonal (Sigma, Cat no. G9545) at a dilution of 1:5000. The blot was then probed with corresponding anti-rabbit IgG HRP-linked whole antibody secondary (GE Healthcare, Cat no. NA934V) or anti-mouse IgG HRP-linked whole antibody secondary (GE Healthcare, Cat no. NA931V) at a dilution of 1:10000. Antibody binding was detected using Supersignal West Pico Chemiluminescent Substrate (Pierce, Cat no. 34080).

C[C@]12CC[C@@H]3c4ccc(O)cc4C[C@@H](CCCCCCCCC[S+]([O-])CCCC(F)(F)C(F)(F)F)[C@H]3[C@@H]1CC[C@@H]2O (some centres unmarked) [fulvestrant, Fulvestrant]
FKBPL-overexpressing clones more sensitive than parental controls (MCF7 cells [1]; 2.5 nM fulvestrant): up to 99%
Resistance of MCF-7 cells after FKBPL knock-down (MCF7 cells [2]; 2.5 nM fulvestrant): dramatically increased the resistance

CC/C(=C(\c1ccccc1)c1ccc(OCCN(C)C)cc1)c1ccccc1 [tamoxifen, Tamoxifen]
FKBPL-overexpressing cells more sensitive than parental controls (MCF7 cells [1]; 1 μM tamoxifen): up to 90%
Resistance of MCF-7 cells after FKBPL knock-down (MCF7 cells [2]; 1 μM tamoxifen): dramatically increased the resistance
ER+ patients showing a response ([3]; ER+ breast cancer patients): around 60%
ER+ tumours failing to respond to or developing resistance ([3]; ER+ tumours (non-responder subjects)): up to 40%

C[C@]12CC[C@@H]3c4ccc(O)cc4CC[C@H]3[C@@H]1CC[C@@H]2O [17-β-estradiol]
ER levels (MCF7 parental cells): decrease
FKBPL protein expression (MCF7 parental cells): upregulated
